Experiments:
Erysiphe polygoni [1] = test: Spore germination test; type: cell-based; settings: EP, 48 hours
Outline: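 Compound was delivered in acetone into water agar at final 40, 10, 2.5 and 1 ppm. Alternaria solani and Botrytis cinerea spores were applied as sterile-water suspensions, while Erysiphe polygoni and Uromyces phaseoli spores were brushed on from infected leaves. After 48 h at 24° C., percentage germination was converted to a rating.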

Erysiphe polygoni [2] = test: whole plant or invertebrate; settings: foliar, 24 h, read-out: Percent Disease Control, curative, bean powdery mildew
Rhizoctonia solani = test: Mycelial growth test; type: cell-based; settings: RS; for inhibition at 5 ppm / inhibition at 10 ppm / inhibition at 20 ppm / inhibition at 40 ppm: Rhizoctonia solani, 72 h, read-out: Percent Fungus Growth Inhibition
Source text: | RS = Rhizoctonia solani

Structure (SMILES) | Spore Germination Rating (Erysiphe polygoni [1]; 1.0 ppm) | Spore Germination Rating (Erysiphe polygoni [1]; 2.5 ppm) | Spore Germination Rating (Erysiphe polygoni [1]; 10 ppm) | Spore Germination Rating (Erysiphe polygoni [1]; 40 ppm) | pest or weed control at 150 ppm (Erysiphe polygoni [2]) | inhibition at 5 ppm (Rhizoctonia solani) | inhibition at 10 ppm (Rhizoctonia solani; 10 ppm) | inhibition at 20 ppm (Rhizoctonia solani) | inhibition at 40 ppm (Rhizoctonia solani) | Percent Fungus Growth Inhibition (Rhizoctonia solani; 10 ppm, 72 hours)
O=c1c(Cl)nsnc1Oc1ccc(Br)cc1 [Compound 15, 3-chloro-5-(4-bromophenoxy)-4H--1,2,6-thiadiazin-4-one] | 4 (80-100) | 1 (10-40) | 0 (0-10) | 0 (0-10) | 100% | 13% | 38% | 38% | 53% | 
O=c1c(Cl)nsnc1Oc1ccc(Cl)c(Cl)c1 [Compound 16, 3-chloro-5-(3,4-dichlorophenoxy)-4H--1,2,6-thiadiazin-4-one] | 4 (80-100) | 3 (60-80) | 1 (10-40) | 4 (80-100) | 0% | 29% | 31% | 31% | 69% | 
O=c1c(Cl)nsnc1Oc1ccc(Cl)cc1Cl [Compound 17, 3-chloro-5-(2,4-dichlorophenoxy)-4H--1,2,6-thiadiazin-4-one] | 3 (60-80) | 1 (10-40) | 0 (0-10) | 0 (0-10) | 100% | 40% | 53% | 76% | 76% | 
O=c1c(Cl)nsnc1Oc1c(Cl)cccc1Cl [Compound 18, 3-chloro-5-(2,6-dichlorophenoxy)-4H--1,2,6-thiadiazin-4-one] | 2 (40-60) | 1 (10-40) | 0 (0-10) | 0 (0-10) | 100% | 42% | 56% | 76% | 87% | 
O=c1c(Cl)nsnc1Oc1cc(Cl)cc(Cl)c1 [Compound 20, 3-chloro-5-(3,5-dichlorophenoxy)-4H--1,2,6-thiadiazin-4-one] | 3 (60-80) | 0 (0-10) | 0 (0-10) | 0 (0-10) | 100% | 51% | 58% | 76% | 78% | 
Cc1cccc(Oc2nsnc(Cl)c2=O)c1 [Compound 21, 3-chloro-5-(3-methylphenoxy)-4H--1,2,6-thiadiazin-4-one] | 4 (80-100) | 3 (60-80) | 2 (40-60) | 0 (0-10) | 100% | 53% | 64% | 87% | 100% | 
Cc1ccccc1Oc1nsnc(Cl)c1=O [Compound 22, 3-chloro-5-(2-methylphenoxy)-4H--1,2,6-thiadiazin-4-one] | 4 (80-100) | 4 (80-100) | 3 (60-80) | 1 (10-40) | 100% | 42% | 62% | 91% | 100% | 
Cc1ccc(Oc2nsnc(Cl)c2=O)c(C)c1 [Compound 23, 3-chloro-5-(2,4-dimethylphenoxy)-4H--1,2,6-thiadiazin-4-one] | 4 (80-100) | 4 (80-100) | 3 (60-80) | 1 (10-40) | 0% | 20% | 53% | 73% | 78% | 
Cc1cccc(C)c1Oc1nsnc(Cl)c1=O [Compound 24, 3-chloro-5-(2,6-dimethylphenoxy)-4H--1,2,6-thiadiazin-4-one] | 3 (60-80) | 1 (10-40) | 0 (0-10) | 0 (0-10) | 100% | 20% | 64% | 82% | 100% | 
Cc1cc(C)cc(Oc2nsnc(Cl)c2=O)c1 [Compound 25, 3-chloro-5-(3,5-dimethylphenoxy)-4H--1,2,6-thiadiazin-4-one] | 4 (80-100) | 4 (80-100) | 0 (0-10) | 0 (0-10) | 100% | 20% | 64% | 80% | 78% | 
Nc1ccc(Oc2nsnc(Cl)c2=O)cc1 [Compound 26, 5-(4-aminophenoxy)-3-chloro-4H--1,2,6-thiadiazin-4-one] | 4 (80-100) | 4 (80-100) | 4 (80-100) | 4 (80-100) | 0% | 0% |  | 42% | 76% | 53%
CNC(=O)Nc1ccc(Oc2nsnc(Cl)c2=O)cc1 [Compound 28, 3-chloro-5-[4-(3-methylureido)-phenoxy]-4H--1,2,6-thiadiazin-4-one] | 4 (80-100) | 4 (80-100) | 4 (80-100) | 4 (80-100) | 50% | 20% | 47% | 24% | 47% | 
O=C(Nc1ccccc1)Nc1ccc(Oc2nsnc(Cl)c2=O)cc1 [Compound 29, 3-chloro-5-[4-(3-phenylureido)-phenoxy]-4H--1,2,6-thiadiazin-4-one] | 4 (80-100) | 4 (80-100) | 4 (80-100) | 1 (10-40) | 0% | 0% | 31% | 0% | 29% | 
O=c1c(Cl)nsnc1Oc1c(Cl)cc(Cl)cc1Cl [Compound 30, 3-chloro-5-(2,4,6-trichlorophenoxy)-4H--1,2,6-thiadiazin-4-one] | 1 (10-40) | 0 (0-10) | 0 (0-10) | 0 (0-10) | 100% | 42% | 62% | 69% | 80% | 
O=c1c(Cl)nsnc1Oc1c(Cl)c(Cl)c(Cl)c(Cl)c1Cl [Compound 31, 3-chloro-5-(pentachlorophenoxy)-4H--1,2,6-thiadiazine-4-one] | 0 (0-10) | 0 (0-10) | 1 (10-40) | 0 (0-10) | 100% | 53% | 69% | 73% | 76% | 
O=c1c(Cl)nsnc1Oc1cccc2ccccc12 [Compound 32, 3-chloro-5(1-naphthoxy)-4H-1,2,6-thiadiazin-4-one] | 2 (40-60) | 2 (40-60) | 0 (0-10) | 0 (0-10) | 90% | 76% | 42% | 69% | 73% | 
O=c1c(Cl)nsnc1Oc1ccccc1Br [Compound 34, 3-chloro-5-(2-bromophenoxy)-4H-1,2,6,-thiadiazin-4-one] | 0 (0-10) | 2 (40-60) | 0 (0-10) | 0 (0-10) | 95% | 24% | 64% | 76% | 100% | 
O=c1c(Cl)nsnc1Oc1ccc(O)cc1 [Compound 35, 3-chloro-5-(4-hydroxyphenoxy)-4H-1,2,6-thiadiazin-4-one] | 4 (80-100) | 4 (80-100) | 2 (40-60) | 1 (10-40) | 0% | 0% | 7% | 44% | 76% | 

Source: patent US4450269A, “Mono-5-substituted-3-chloro-4H-1,2,6-thiadiazin-4-one antifungal agents” (FMC Corporation, priority 1980, dated 1984)
